# Reference: patent publication US6441206B1, “Use of organic acid esters in dietary fat” (Raisio Benecol Ltd., priority 1997, dated 2002)
# Experiments:
# [1] = thermal resistance of light spread at 45° C.; type: physicochemical; details: fat component with 5% ester, 45° C. up to 4 hours, mixed after return to room temperature
# Protocol: The polarity of the sterol/stanol esters described above is an extremely useful property. It is characteristic of compounds according to the invention, e.g. β-sitosterol dicarboxylic acid hemiesters and citrates that in lipid solutions (e.g. 2.5-5% of the fat component) they promote the mixing of the lipid and the water. […] The prepared light spread also lasted better than the comparative sample when heated to 45° C. for up to 4 hours. By improved thermal resistance is meant that after 2 hours at 45° C., more oil had separated from the comparative sample than from the sterol-containing sample. Over the next 2 hours, the separation of oil from the comparative sample continued. In the sterol-containing spread, however, negative change had ceased.
# [2] = tested on: cholesterol absorption; details: cited from earlier work; for cholesterol absorption lowering effect: molar quantities of the fatty acid esters
# [3] = solubility in alcohol (ethanol) and lipids; type: physicochemical
# Description: According to one preferred embodiment of the invention, β-sitosterols are esterified and sterol esters are hydrogenated to form stanols. […] This achieves the significant advantage that hydrogenation can be carried out at room temperature.
# Di-β-sitosteryl citrate is formed in a heterogeneous reaction between citric acid and β-sitosterol, at the same reaction conditions as described in the previous section. The compound is separated from the sterol monocitrate on the basis of solubility, using ethanol extraction. The method is based on the fact that the solubility of sterol monocitrate in ethyl alcohol is ten times that of di-β-sitosteryl citrate.
# A minimum of 7 ml of water was azeotropically distilled from the reaction mixture over 7-8 hours; as the conversion approached theoretical, upon cooling no lactic acid or plant sterols were crystallized from the reaction mixture. The cooled reaction mixture was a yellowish, viscose liquid. The toluene was removed from the reaction mixture in a vacuum (29 mmHg) at a temperature of 80-90° C. […] As a whole, the material obtained was useable and contained very little or no free plant sterols and/or lactic acid.
# [4] = tested on: triglyceride content of the blood serum; details: rats; cited from earlier work
# [5] = tested on: triglyceride content of liver; details: cited from earlier work
# [6] = tested on: white male mice; details: 3.5 g dose per 1 kg live weight; cited from earlier work
# [7] = tested on: total serum cholesterol; details: daily supply of plant sterol 2-3 g; cited from earlier work
# [8] = tested on: cholesterol absorption; details: infusion test; cited from earlier work
# [9] = tested on: blood cholesterol; details: in vivo; cited from earlier work
# [10] = soluble matter in spirit vinegar (10 weight-% acetic acid); type: physicochemical; details: spirit vinegar with 10 weight-% acetic acid; 12 hours standing without stirring
# Description: 6.80 g β-sitosterol citrate from example 12 90.7 g Rajamäki Spirit Vinegar (Primalco Oy, Nurmijärvi), containing 10 weight-% acetic acid.
compound,measurement,setting,value
"CCC(CCC(C)C1CCC2C3CC=C4CC(OC(=O)CCC(=O)O)CCC4(C)C3CCC12C)C(C)C (stereo not drawn) [Example 3, β-sitosterol Hydrogen Succinate]",changes in the sample after heating,[1],almost reversible
same,lowering of the cholesterol content of blood,[2]; compared with phytosterol monocarboxyl acid esters,as effectively as the phytosterol monocarboxyl acid esters
"CC[C@H](CC[C@@H](C)[C@H]1CC[C@H]2[C@@H]3CC=C4C[C@@H](OC(=O)C(C)O)CC[C@]4(C)[C@H]3CC[C@]12C)C(C)C (stereo partly drawn) [Example 19, β-sitosterol Lactate]",solubility in alcohol,[3]; in words,highly soluble in alcohol
same,solubility in lipids and ethanol,"[3]; reaction product, viscose liquid at 60-100° C.",soluble in lipids and ethanol
CC(=O)O [acetate],cholesterol absorption lowering effect,[2],equally as effective
"CC[C@H](CC[C@@H](C)[C@H]1CC[C@H]2[C@@H]3C[C@@H](OC=O)[C@@]4(O)C[C@@H](OC=O)CC[C@]4(C)[C@H]3CC[C@]12C)C(C)C [sitostane-3β-, 5α-, 6β-triol-3,6-diformiate]",lowering of triglyceride content of the blood serum,[4],moderately lower
same,lowering of triglyceride content of liver,[5]; guinea pigs,54%
same,acute toxicity,[6],did not show toxicity
CC[C@H](CC[C@@H](C)[C@H]1CC[C@H]2[C@@H]3CC[C@H]4C[C@@H](O)CC[C@]4(C)[C@H]3CC[C@]12C)C(C)C [sitostanol],total serum cholesterol,[7],decrease in the total serum cholesterol
CC[C@H](CC[C@@H](C)[C@H]1CC[C@H]2[C@@H]3CC[C@H]4C[C@@H](O)CC[C@]4(C)[C@H]3CC[C@]12C)C(C)C [β-sitostanol],inhibition of cholesterol absorption,[8],83%
CC[C@H](CC[C@@H](C)[C@H]1CC[C@H]2[C@@H]3CC=C4C[C@@H](O)CC[C@]4(C)[C@H]3CC[C@]12C)C(C)C [β-sitosterol],inhibition of cholesterol absorption,[8],50%
same,response in this test,"[5]; source material as comparison, which test is meant is not clear",did not give a positive response
decanoate,cholesterol absorption lowering effect,[2],equally as effective
oleate,cholesterol absorption lowering effect,[2],equally as effective
soy sterol-2-carbamate glutaric acid K^+—salt,lowering blood cholesterol concentrations,[9],proved to lower blood cholesterol concentrations
β-sitosterol citrate [Example 12],amount of the sterol citrate dissolved,[10],0.74%
